Data reported in ChEMBL document CHEMBL1152390, “Macrophyllin-type bicyclo[3.2.1]octanoid neolignans from the leaves of Pleurothyrium cinereum” (J Nat Prod, 2009).

Legend:
[1] = tested on: Enterococcus faecalis; assay: Antibacterial activity against Enterococcus faecalis ATCC 29212 by radial diffusion assay; format: functional
[2] = tested on: Mycobacterium tuberculosis; assay: Antituberculosis activity against Mycobacterium tuberculosis H37Rv assessed as parasite growth inhibition at 100 ug/ml after 4 days by microplate alamar blue assay; format: functional; conditions: 96 h, read-out: GI
[3] = tested on: Escherichia coli; assay: Antibacterial activity against Escherichia coli ATCC 25922 by radial diffusion assay; format: functional
[4] = tested on: Salmonella enterica subsp. enterica; assay: Antibacterial activity against Salmonella Typhimurium MS 7953 by radial diffusion assay; format: functional, Salmonella enterica subsp. enterica serovar Typhimurium
[5] = tested on: Mycobacterium tuberculosis; assay: Antituberculosis activity against Mycobacterium tuberculosis H37Rv assessed as parasite growth inhibition at 50 ug/ml after 4 days by microplate alamar blue assay; format: functional; conditions: 96 h, read-out: GI
[6] = tested on: Salmonella enterica subsp. enterica; assay: Antibacterial activity against Salmonella Typhimurium EG10627 by radial diffusion assay; format: functional, Salmonella enterica subsp. enterica serovar Typhimurium
[7] = tested on: Staphylococcus aureus; assay: Antibacterial activity against Staphylococcus aureus ATCC 65380 by radial diffusion assay; format: functional
[8] = Antiplatelet activity in rabbit platelets assessed as inhibition of PAF-induced platelet aggregation treated 5 mins before PAF challenge; format: functional, cell-based; conditions: Oryctolagus cuniculus
[9] = tested on: Salmonella enterica subsp. enterica; assay: Antibacterial activity against Salmonella Typhimurium ATCC 14028s by radial diffusion assay; format: functional, Salmonella enterica subsp. enterica serovar Typhimurium
[10] = tested on: Mycobacterium tuberculosis; assay: Antituberculosis activity against Mycobacterium tuberculosis H37Rv assessed as parasite growth inhibition at 25 ug/ml after 4 days by microplate alamar blue assay; format: functional; conditions: 96 h, read-out: GI

Compound | growth inhibition (GI) [1] | inhibition of growth at 100 µg/mL [2] | growth inhibition (GI) [3] | growth inhibition (GI) [4] | inhibition of growth at 50 µg/mL [5] | growth inhibition (GI) [6] | growth inhibition (GI) [7] | IC50 [8] | growth inhibition (GI) [9] | inhibition of growth at 25 µg/mL [10]
C=CCC1=C[C@]2(OC)[C@H](C)[C@@H](c3cc(OC)c4c(c3)OCO4)[C@](OC)(C1=O)[C@H]2O [CINERIN C] | <30% | 49.4% | <30% | <30% | 49.8% | <30% | <30% | 1100 nM | <30% | 43.8%
NNC(=O)c1ccncc1 [ISONIAZID] |  |  |  |  |  |  |  |  |  | 94.2%
CO[C@H]1/C=C/O[C@@]2(C)Oc3c(C)c(O)c4c(O)c(c(/C=N/N5CCN(C)CC5)c(O)c4c3C2=O)NC(=O)/C(C)=C\C=C\[C@H](C)[C@H](O)[C@@H](C)[C@@H](O)[C@@H](C)[C@H](OC(C)=O)[C@@H]1C [RIFAMPIN] |  |  |  |  |  |  |  |  |  | 97.6%
C=CCC1=C[C@]2(OC)C(=O)[C@@](OC)(C1=O)[C@H](c1cc(OC)c3c(c1)OCO3)[C@H]2C [CINERIN A] | <30% | 8.1% | <30% | <30% | 7.2% | <30% | <30% | 16800 nM | <30% | 2.5%
C[C@@H]1C(=O)O[C@H]2[C@H](O)[C@@]34[C@H]5C[C@@H](C(C)(C)C)[C@]36[C@@H](OC(=O)[C@@H]6O)O[C@@]4(C(=O)O5)[C@@]12O [GINKOLIDE B] |  |  |  |  |  |  |  | 930 nM |  | 
C=CCC1=C[C@@]2(OC)[C@H](C)[C@@H](c3cc(OC)c4c(c3)OCO4)[C@H](C1=O)[C@@H]2O [CINERIN B] | <30% | 19.5% | <30% | <30% | 20.9% | <30% | <30% | 1500 nM | <30% | 13.9%
C=C1C[C@@]23CC[C@H]4[C@@](C)(CCC[C@@]4(C)C(=O)O)[C@@H]2CC[C@@H]1C3 [KAURENOIC ACID] | <30% | 94.2% | <30% | <30% | 91.3% | <30% | <30% |  | <30% | 88.6%
C=CCC1=C[C@@]2(OC)C(=O)[C@](OC)([C@H](c3cc(OC)c4c(c3)OCO4)[C@H]2C)[C@H]1O [CINERIN D] | <30% | 7.3% | <30% | <30% | 6.2% | <30% | <30% | 6600 nM | <30% | 1.3%
C=CCC1=C[C@@]2(OC)C(=CC1=O)O[C@H](c1ccc(OC)c(OC)c1)[C@H]2C [KADSURENONE] |  |  |  |  |  |  |  | 120 nM |  | 
